Earlier results in US20180243282A1, “Preparation and Use of Combination Enzyme and Gastrointestinal Modulator Delivery Systems” (Curemark, LLC, priority 2010, published 2018).

What was measured:
[1] = in vivo
[2] = in vivo; remark: listed apart in the source
[3] = acidic conditions in the stomach

clearance by hemodialysis [1]	excretion [2]	Compound	systemic absorption [2]	protective coating lasts [3]	systemic toxicity [2]
cleared by hemodialysis		CN/C(=N/CCSCc1nc[nH]c1C)NC#N [cimetidine]			
	excreted in the feces	Bismuth	largely unabsorbed		
		sucralfate	lack of systemic absorption	up to 6 hours	no systemic toxicity
